# According to PMC10223164, “Exploration of the Transglycosylation Activity of Barley Limit Dextrinase for Production of Novel Glycoconjugates” (Molecules, 2023):
# Biological target: T1, HvLD (barley limit dextrinase) (Hordeum vulgare, UniProt Q9FYY0)
# T1 sequence (Q9FYY0 1-905 limits assumed): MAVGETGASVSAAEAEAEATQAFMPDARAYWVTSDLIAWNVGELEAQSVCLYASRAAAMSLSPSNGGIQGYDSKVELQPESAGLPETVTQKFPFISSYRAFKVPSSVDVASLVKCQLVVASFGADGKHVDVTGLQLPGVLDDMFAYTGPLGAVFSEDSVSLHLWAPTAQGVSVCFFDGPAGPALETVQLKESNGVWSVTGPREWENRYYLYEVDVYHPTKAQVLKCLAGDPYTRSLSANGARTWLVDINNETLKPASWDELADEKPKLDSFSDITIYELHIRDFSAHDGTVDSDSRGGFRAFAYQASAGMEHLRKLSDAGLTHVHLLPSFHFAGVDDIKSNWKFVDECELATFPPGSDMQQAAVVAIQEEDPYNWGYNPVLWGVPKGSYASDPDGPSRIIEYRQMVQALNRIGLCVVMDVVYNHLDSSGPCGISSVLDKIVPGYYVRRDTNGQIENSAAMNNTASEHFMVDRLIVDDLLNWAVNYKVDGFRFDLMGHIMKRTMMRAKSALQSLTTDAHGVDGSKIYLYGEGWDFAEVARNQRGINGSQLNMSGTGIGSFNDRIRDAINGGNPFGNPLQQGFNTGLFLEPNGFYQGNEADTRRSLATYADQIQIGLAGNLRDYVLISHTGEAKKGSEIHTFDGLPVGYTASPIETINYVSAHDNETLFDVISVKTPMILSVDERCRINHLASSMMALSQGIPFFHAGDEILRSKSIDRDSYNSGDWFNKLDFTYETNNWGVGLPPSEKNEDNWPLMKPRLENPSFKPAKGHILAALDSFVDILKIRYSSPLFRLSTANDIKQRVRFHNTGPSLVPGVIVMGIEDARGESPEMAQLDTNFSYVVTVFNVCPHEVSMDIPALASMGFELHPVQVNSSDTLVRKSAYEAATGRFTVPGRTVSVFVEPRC
# Assay: LC-ESI-MS with UV quantification of transglycosylation products
# Format: biochemical
# Conditions: glycosyl donor, 10 mg/mL; acceptors pNP-sugars 8-14 mM; 20 mM sodium acetate pH 5.5; 5 mM CaCl2; 37 °C, 2 h
smiles,measurement,value
"OC[C@H]1O[C@H](OC[C@H]2O[C@H](O[C@H]3[C@H](O)[C@@H](O)[C@@H](O[C@H]4[C@H](O)[C@@H](O)[C@@H](OC[C@H]5O[C@H](O[C@H]6[C@H](O)[C@@H](O)[C@@H](O[C@H]7[C@H](O)[C@@H](O)C(O)O[C@@H]7CO)O[C@@H]6CO)[C@H](O)[C@@H](O)[C@@H]5O)O[C@@H]4CO)O[C@@H]3CO)[C@H](O)[C@@H](O)[C@@H]2O)[C@H](O)[C@@H](O)[C@@H]1O (stereo partly drawn) [G1G3G3, 6^3-α-(6^3-α-D-glucosyl-maltotriosyl)-maltotriose]",LC-ESI-MS with UV quantification of transglycosylation products,G1G3G3 could serve as donor in HvLD TG reactions with all five pNP-sugars
